We go through 19 compounds from patent US20060263895A1, “Method for monitoring the stereoselectivity and relative rate of organic chemical reactions” (priority 2005, published 2006).

The nature of test [1]: Double cuvette-ISES (in situ enzymatic screening) of Co(III)-salen mediated HKR of (±)-propylene oxide. To be noted: for ISES signal: over 35 min; for % ee of the 1,2-propanediol product, as predicted by double-cuvette ISES (upper number): bilayer of pH 8.6 buffer over 7.2 M epoxide in CHCl3, 0.25 mol % catalyst, 15-35 min, + = (S), − = (R). The procedure:
Aqueous reporting layers. containing TBADH/NADP+ (cuvette 1) and HLADH/NAD+ (cuvette 2), respectively, are then added. The increase in absorbance at 340 nm can be followed for several such sets in parallel by UV-vis spectrophotometry. The kinetic data are then used to make the double-cuvette ISES predictions.
A general procedure for double cuvette-ISES to estimate both enantioselectivities and relative rates for an array of catalysts being screened in parallel is presented below. The hydrolytic kinetic resolution (HKR) of (±) propylene oxide was chosen as model reaction.
Typically, quartz cuvettes with one cm light paths and with nominal one mL volumes were used. For each catalyst, a two cuvette screen was performed, with cuvette A containing HLADH, as (S)-propanediol-selective reporting enzyme, and cuvette B containing TBADH, as a (R)-propanediol-selective reporting enzyme. For each cuvette, the final volume was 800 μL (300 μL of organic layer; 500 μL of aqueous layer).
Both cuvettes A and B had the following composition: 150 μL (2.15 mmol) of (±)-propylene oxide (7.2 M in organic layer), 150 μL of CHCl3 and 0.25 mol % Co(III)-salen catalyst. The total organic layer volume was maintained as 300 μL in all catalyst screens.
(i) Cuvette A: 0.35 U HLADH (17.6 μL from a stock solution (0.02U/μL)), 7.2 mM β-NAD+(16.5 μL from a 220 mM stock) and 465.8 μL of 50 mM sodium pyrophosphate buffer, pH 8.8. The final pH was 8.6.
(ii) Cuvette B: 0.35 U TBADH (15.8 μL from a stock solution (0.022U/μL)) of, 2.2 mM β-NADP+ (5 μL from a 220 mM stock) and 479.5 μL of 50 mM sodium pyrophosphate buffer, pH 8.8. The final pH was 8.6. The total volume of the aqueous layer was maintained as 500 μL in both cuvettes in all ISES experiments.
C. Step by Step Protocol: A catalyst stock solution (22 μmol of catalyst in 620 μL CHCl3) was made up in a 1.5 ml microcentrifuge tube, and stored on ice, along with a stock of (±)-propylene oxide, in a separate tube. The organic layers were prepared by briefly vortexing 150 μL (5.4 μmol, 0.25 mol %) of the catalyst stock in CHCl3 with 150 μL (2.15 mmol) of (±)-propylene oxide in iced microcentrifuge tubes. These were loaded into 1 mL quartz cuvettes using precooled (refrigerator), disposable 1 mL syringes. The aqueous layers were then layered on top of the organic layers, by syringe, down the walls of the cuvette.

Test [2] can be described thus: HKR of (±)-propylene oxide under standard neat 'Jacobsen conditions' (NMR conversion, chiral HPLC ee). The following applies: for NMR conv. (time) / % ee (HPLC): loading 0.25 mol %; for % ee (HPLC): reaction stopped at the time given (mostly 3 h); for % ee (HPLC) / % ee of the 1,2-propanediol product, as observed by chiral HPLC (lower number): + = (S), − = (R); for % ee of the 1,2-propanediol product, as observed by chiral HPLC (lower number): neat propylene oxide, 0.55 equiv. H2O, 0.25 mol % catalyst, 3 h reaction time. The procedure: Salens in the fully synthetic, 42 member focused library that led to catalysts with appreciable activity, as indicated by double cuvette-ISES, were also evaluated ‘outside of the cuvette,’ under conditions more typically employed in HKR reactions. Specifically, these Co(III)-salen catalysts were evaluated in the HKR of (±)-propylene oxide, under neat conditions, similar to those described by Jacobsen and coworkers. Reactions were arbitrarily stopped after 3 hours, to obtain the enantiopurity of the 1,2-propanediol product at relatively early reaction times, for comparison with ISES predictions.
A typical procedure follows: To the Co(III)-salen catalyst derived from 7e (5.4 mg, 5.4 μmol, 0.25 mol %) and (±)-propylene oxide (125 mg, 2.15 mmol) at 0° C., was added water (21 μL, 1.18 mmol, 0.55 equiv.). The reaction mixture was securely capped, and allowed to warm to room temperature and stirred, most commonly for a total of 3 hours. Percent conversion at 3 hours was evaluated by 1H NMR of an aliquot (cooled to 0° C. for the transfer), in CDCl3. In most of these cases, the conversion was low enough after 3 hours, that the unreacted epoxide (bp 32° C.) was of relatively low ee, and was therefore removed by evaporation under aspirator vacuum. When the conversion was less than 5% by NMR after 3 hours, reactions were continued for longer times.
Upon termination of the reaction, the diol product was isolated by Kugelrohr distillation (˜120° C.-oven temp; 0.1 torr). To determine ee, the isolated diol was derivatized using p-bromobenzoyl imidazole (2.2 equiv.) in THF in the presence of NaH (4 equiv.) at room temperature for 5 min. The bis(p-bromobenzoate) esters obtained following sequential washes with 1 N HCl and saturated sodium bicarbonate, were of sufficient purity to be used directly for chiral HPLC analysis (Chiralcel OD, 99% […]). [drawing 23] [drawing 24] [drawing 25] [drawing 26] [drawing 27]

For `Oc1c(I)cc(I)cc1C=NC[C@H](Cc1ccccc1)N=Cc1cc(I)cc(I)c1O` [Salen 3e, N,N′-Bis(3′,5′-diiodosalicylidene)-(1S)-benzyl-1,2-ethylenediamine], in test [1], the ISES signal entry is reported as “§ (These catalysts gave ISES signals <20 mAbs min−1 over 35 min.)”.

Regarding “N,N′-Bis(8′-hydroxy-1′,1′,7′,7′-tetramethyljulolidine-9′-methylidene)-[1R-(1α,2α,5α)]-2-amino-7,7-dimethyl-2-bicyclo[3.3.1]heptane-ethanamine [Salen 1g]”, the ISES signal result in test [1] is given as “§ (These catalysts gave ISES signals <20 mAbs min−1 over 35 min.)”.

Regarding “N,N′-Bis(2′-hydroxy-1′-naphthylidene)-[1R-(1α,2α,5α)]-2-amino-7,7-dimethyl-2-bicyclo[3.3.1]heptane-ethanamine [Salen 1c]”, in test [1], the ISES signal result is reported as “§ (These catalysts gave ISES signals <20 mAbs min−1 over 35 min.)”.

`CO[C@H]1[C@@H]2OC(C)(C)O[C@@H]2COC1(CN=Cc1cccc(C(C)(C)C)c1O)N=Cc1cccc(C(C)(C)C)c1O` (stereo partly drawn) [Salen 7b, N,N′-Bis(3′-tert-butylsalicylidene)-3-O-methyl-4,5-O-isopropylidene-1,2-dideoxy-Dfructopyranosyl-1,2-diamine]: the “% ee of the 1,2-propanediol product, as predicted by double-cuvette ISES (upper number)” value in test [1] is given as −28 % ee. In addition, the “NMR conv. (time)” value in test [2] (3 h) was 9 (3 h) %. Further, in test [2], the “% ee (HPLC)” value is −40 (R) % ee and the “% ee of the 1,2-propanediol product, as observed by chiral HPLC (lower number)” value is −40 % ee.

For `CO[C@H]1[C@@H]2OC(C)(C)O[C@@H]2COC1(CN=Cc1c(O)ccc2ccccc12)N=Cc1c(O)ccc2ccccc12` (stereo partly drawn) [Salen 7c, N,N′-Bis(2′-hydroxy-1′-naphthylidene)-3-O-methyl-4,5-O-isopropylidene-1,2-dideoxy-Dfructopyranosyl-1,2-diamine], in test [1], the ISES signal result is on record as “§ (These catalysts gave ISES signals <20 mAbs min−1 over 35 min.)”. Besides, in test [2] (time not given), the “NMR conv. (time)” value was “none obs”.

Turning to `Oc1ccc2ccccc2c1C=NC[C@H](Cc1ccc2ccccc2c1)N=Cc1c(O)ccc2ccccc12` [Salen 5c], the ISES signal result in test [1] was “§ (These catalysts gave ISES signals <20 mAbs min−1 over 35 min.)”.

Take `Oc1ccc2ccccc2c1C=NC[C@H](Cc1ccccc1)N=Cc1c(O)ccc2ccccc12` [Salen 3c, N,N′-Bis(2′-hydroxy-1′-naphthylidene)-(1S)-benzyl-1,2-ethylenediamine]: the ISES signal entry in test [1] was “§ (These catalysts gave ISES signals <20 mAbs min−1 over 35 min.)”. Besides, in test [2] (time not given), the “NMR conv. (time)” value is reported as “none obs”.

Turning to `CC1(C)CCN2CCC(C)(C)c3c(O)c(C=NC[C@H](Cc4cccc5ccccc45)N=Cc4cc5c6c(c4O)C(C)(C)CCN6CCC5(C)C)cc1c32` [Salen 4g, N,N′-Bis(8′-hydroxy-1′,1′,7′,7′-tetramethyljulolidinyl-9′-methylidene)-(1S)-α-naphthylmethyl-1,2-ethylenediamine], the ISES signal result in test [1] is “§ (These catalysts gave ISES signals <20 mAbs min−1 over 35 min.)”.

For “N,N′-Bis(4′-benzyloxysalicylidene)-[1R-(1α,2α,5α)]-2-amino-7,7-dimethyl-2-bicyclo[3.3.1]heptane-ethanamine [Salen 1f]”, in test [1], the ISES signal result is reported as “§ (These catalysts gave ISES signals <20 mAbs min−1 over 35 min.)”.

As to `Oc1cc(OCc2ccccc2)ccc1C=NC[C@H](Cc1cccc2ccccc12)N=Cc1ccc(OCc2ccccc2)cc1O` [Salen 4f, N,N′-Bis(4′-benzyloxysalicylidene)-(1S)-(α-naphthylmethyl)-1,2-ethylenediamine], the “% ee of the 1,2-propanediol product, as predicted by double-cuvette ISES (upper number)” value in test [1] was “+57 % ee”. The “NMR conv. (time)” value in test [2] (21 h) is reported as 24 (21 h) %. In test [2], the “% ee (HPLC)” value is given as “+51 (S) % ee” and the “% ee of the 1,2-propanediol product, as observed by chiral HPLC (lower number)” value is reported as “+51 % ee”.

As for `Oc1cc(OCc2ccccc2)ccc1C=NC[C@@H](N=Cc1ccc(OCc2ccccc2)cc1O)c1ccccc1` [Salen 2f, N,N′-Bis(4′-benzyloxysalicylidene)-(1S)-phenyl-1,2-ethylenediamine], the ISES signal entry in test [1] is “§ (These catalysts gave ISES signals <20 mAbs min−1 over 35 min.)”.

With `CC1(C)CCN2CCC(C)(C)c3c(O)c(C=NC[C@H](Cc4ccc5ccccc5c4)N=Cc4cc5c6c(c4O)C(C)(C)CCN6CCC5(C)C)cc1c32` [Salen 5g, N,N′-Bis(8′-hydroxy-1′,1′,7′,7′-tetramethyljulolidinyl-9′-methylidene)-(1S)-(β-naphthylmethyl)-1,2-ethylenediamine], the ISES signal entry in test [1] is “§ (These catalysts gave ISES signals <20 mAbs min−1 over 35 min.)”.

As to `COC1C2OC(C)(C)OC2COC1(CN=Cc1ccc(OCc2ccccc2)cc1O)N=Cc1ccc(OCc2ccccc2)cc1O` (stereo not drawn) [Salen 7f, N,N′-Bis(4′-benzyloxysalicylidene)-3-O-methyl-4,5-O-isopropylidene-1,2-dideoxy-β-Dfructopyranosyl-1,2-diamine], in test [1], the ISES signal entry is “§ (These catalysts gave ISES signals <20 mAbs min−1 over 35 min.)”.

Turning to `Oc1cc(OCc2ccccc2)ccc1C=NC[C@H](Cc1ccccc1)N=Cc1ccc(OCc2ccccc2)cc1O` [Salen 3f, N,N′-Bis(4′-benzyloxysalicylidene)-(1S)-benzyl-1,2-ethylenediamine], in test [1], the ISES signal entry was “§ (These catalysts gave ISES signals <20 mAbs min−1 over 35 min.)”.

With `CO[C@H]1[C@@H]2OC(C)(C)O[C@@H]2COC1(CN=Cc1c(O)ccc2ccccc12)N=Cc1c(O)ccc2ccccc12` (stereo partly drawn) [Salen 6c, N,N′-Bis(2′-hydroxy-1′-naphthylidene)-3-O-methyl-4,5-O-isopropylidene-1,2-dideoxy-Dfructopyranosyl-1,2-diamine], in test [1], the ISES signal entry is “§ (These catalysts gave ISES signals <20 mAbs min−1 over 35 min.)”.

With `Oc1cc(OCc2ccccc2)ccc1C=NC[C@H](Cc1ccc2ccccc2c1)N=Cc1ccc(OCc2ccccc2)cc1O` [Salen 5f, N,N′-Bis(4′-benzyloxysalicylidene)-(1S)-(β-naphthylmethyl)-1,2-ethylenediamine], the ISES signal entry in test [1] is on record as “§ (These catalysts gave ISES signals <20 mAbs min−1 over 35 min.)”.

As for `Oc1ccc2ccccc2c1C=NC[C@H](Cc1cccc2ccccc12)N=Cc1c(O)ccc2ccccc12` [Salen 4c, N,N′-Bis(2′-hydroxy-1′-naphthylidene)-(1S)-(α-naphthylmethyl)-1,2-ethylenediamine], the ISES signal entry in test [1] is reported as “§ (These catalysts gave ISES signals <20 mAbs min−1 over 35 min.)”.

With `Oc1ccc2ccccc2c1C=NC[C@@H](N=Cc1c(O)ccc2ccccc12)c1ccccc1` [Salen 2c, N,N′-Bis(2′-hydroxy-1′-naphthylidene)-(1S)-phenyl-1,2-ethylenediamine], the ISES signal entry in test [1] is “§ (These catalysts gave ISES signals <20 mAbs min−1 over 35 min.)”.

As to `COC1C2OC(C)(C)OC2COC1(CN=Cc1ccc2ccccc2c1O)N=Cc1ccc2ccccc2c1O` (stereo not drawn) [Salen 7d, N,N′-Bis(1′-hydroxy-2′-naphthylidene)-3-O-methyl-4,5-O-isopropylidene-1,2-dideoxy-β-Dfructopyranosyl-1,2-diamine], the ISES signal entry in test [1] was “§ (These catalysts gave ISES signals <20 mAbs min−1 over 35 min.)”.
